Laboratory results as given in PubChem BioAssay (NCI).
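96-well plates; 48 h exposure; 5 concentrations. Endpoints by linear interpolation between flanking doses. Not reached: highest tested concentration assigned. GI50 is the concentration that inhibits growth by half. Definition used: TGI = concentration required for complete inhibition of growth.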

Columns and labels:
Assay in all cases: inhibition of tumour cell growth, NCI panel, 48 h
786-0 renal = test system: 786-0 renal
CCRF-CEM leukemia = test system: CCRF-CEM leukemia
MOLT-4 leukemia = test system: MOLT-4 leukemia
NCI-H460 lung = test system: NCI-H460 lung
OVCAR-3 ovarian = test system: OVCAR-3 ovarian
OVCAR-5 ovarian = test system: OVCAR-5 ovarian
LOX IMVI melanoma = test system: LOX IMVI melanoma
SR leukemia = test system: SR leukemia
DU-145 prostate = test system: DU-145 prostate
NCI/ADR-RES ovarian = test system: NCI/ADR-RES ovarian

| SMILES | TGI (786-0 renal) [µM] | TGI (CCRF-CEM leukemia) [µM] | TGI (MOLT-4 leukemia) [µM] | TGI (NCI-H460 lung) [µM] | TGI (OVCAR-3 ovarian) [µM] | TGI (OVCAR-5 ovarian) [µM] | TGI (LOX IMVI melanoma) [µM] | TGI (SR leukemia) [µM] | TGI (DU-145 prostate) [µM] | GI50 (786-0 renal) [µM] | GI50 (CCRF-CEM leukemia) [nM] | GI50 (DU-145 prostate) [µM] | GI50 (LOX IMVI melanoma) [nM] | GI50 (NCI-H460 lung) [nM] | GI50 (NCI/ADR-RES ovarian) [nM] | TGI (NCI/ADR-RES ovarian) [µM] | GI50 (OVCAR-3 ovarian) [µM] | GI50 (OVCAR-5 ovarian) [µM] | GI50 (MOLT-4 leukemia) [nM] | GI50 (SR leukemia) [µM] |
| --- | --- | --- | --- | --- | --- | --- | --- | --- | --- | --- | --- | --- | --- | --- | --- | --- | --- | --- | --- | --- |
| O=C(c1ccccn1)c1nc(-c2ccc(Cl)c(Cl)c2)nc2ccc(Cl)cc12 | > 100 | > 100 | > 100 | > 100 | > 100 | > 100 | – | – | – | – | – | – | – | – | – | – | – | – | – | – |
| c1ccc(CCCC2Sc3cccc4cccc(c34)S2)cc1 | > 100 | > 100 | – | > 100 | > 100 | > 100 | > 100 | – | – | – | – | – | – | – | – | – | – | – | – | – |
| CCCCNC(=O)OCC(COc1ccccc1OC)OC(=O)NCCCC (stereo not given) | > 100 | > 100 | > 100 | > 100 | > 100 | – | > 100 | – | – | – | – | – | – | – | – | – | – | – | – | – |
| Cc1cc(Cl)ccc1NC(=O)C(=O)Cc1ccc([N+](=O)[O-])c([N+](=O)[O-])c1CC(=O)C(=O)Nc1ccc(Cl)cc1C | > 100 | > 100 | > 100 | > 100 | > 100 | > 100 | > 100 | > 100 | – | – | – | – | – | – | – | – | – | – | – | – |
| C/C(=C1/N=C(c2ccccc2)OC1=O)c1ccc(C)cc1 | > 100 | > 100 | > 100 | > 100 | > 100 | > 100 | > 100 | > 100 | > 100 | – | – | – | – | – | – | – | – | – | – | – |
| COc1cc2c(cc1OC)C(=O)Cc1ccc3c(c1CNCC2)OCO3 | > 100 | > 100 | > 100 | > 100 | > 100 | > 100 | – | – | – | – | – | – | – | – | – | – | – | – | – | – |
| CC(C)c1cccc(C(C)C)c1NC(=O)C(=O)CC(=O)CC(c1ccccc1)c1c(O)c2ccccc2oc1=O (stereo not given) | > 100 | > 100 | > 100 | > 100 | > 100 | > 100 | – | > 100 | – | – | – | – | – | – | – | – | – | – | – | – |
| CCCCCCCCCCCCOC1C(CNCC2OC3OC(C)(C)OC3C2NC(=O)Nc2ccc(C(F)(F)F)cc2)OC2OC(C)(C)OC21 (stereo not given) | 14.4 | 12.5 | – | 11.8 | 13.3 | 17 | 5.65 | – | 11.9 | 7.62 | 2450 | 5.03 | 2890 | 4230 | 8440 | 17.1 | 4.59 | 9.11 | – | – |
| C=CC[N+]1(CCO)CCN=C1CCCCCCCCCCCCC (stereo not given) | 3.01 | – | – | 3.06 | – | – | 2.68 | – | 2.95 | 1.65 | – | 1.6 | 1380 | 1700 | 1650 | 3.01 | – | – | – | – |
| Cc1nc2nn(Cc3ccccc3)cc2c(=O)o1 | > 100 | > 100 | > 100 | > 100 | > 100 | > 100 | > 100 | – | – | – | – | – | – | – | – | – | – | – | – | – |
| CCOc1ccccc1NC(=O)C(=O)C(C(=O)c1ccc2ccccc2c1)C1OC(=O)c2ccccc21 (stereo not given) | 21.1 | 69.1 | 30.3 | 52.2 | 52 | 46.1 | 29.1 | – | – | – | – | – | – | – | – | – | – | – | – | – |
| O=C1OCC2=C1C(c1cccc(C(F)(F)F)c1)c1cc3c(cc1N2CCO)OCO3 (stereo not given) | > 50 | > 50 | > 50 | > 50 | > 50 | > 50 | > 50 | – | > 50 | 1.19 | 955 | 1.72 | 2020 | 1540 | 1340 | > 50 | 1.32 | 2.19 | 1020 | – |
| Fc1ccc2c(c1)SC1Oc3ccccc3-c3c1c-2nn3-c1ccccc1 (stereo not given) | > 100 | > 100 | > 100 | > 100 | > 100 | > 100 | > 100 | – | – | – | – | – | – | – | – | – | – | – | – | – |
| O=C(N[C@@H]1C=CCC[C@@H]1c1ccccc1)OCc1ccccc1 | 39.7 | 43.9 | 34.6 | 34.7 | 31.2 | 54.4 | 28.9 | 41.7 | – | – | – | – | – | – | – | – | – | – | – | – |
| CC(C)[C@H]1CO[C@@H]2O[C@H](C)CC(=O)N21 | > 100 | > 100 | > 100 | > 100 | > 100 | – | – | > 100 | – | – | – | – | – | – | – | – | – | – | – | – |
| Clc1ccccc1-c1nc(-c2ccncc2)no1 | > 100 | – | > 100 | > 100 | > 100 | > 100 | – | > 100 | > 100 | – | – | – | – | – | – | > 100 | – | – | – | – |
| C/C=C/C(=O)[C@@H](O)C(C)C | > 100 | – | > 100 | – | > 100 | > 100 | – | > 100 | – | – | – | – | – | – | – | – | – | – | – | – |
| Cc1cc(S(N)(=O)=O)c(S/C(=N\Nc2ccc([N+](=O)[O-])cc2)c2ccc(O)cc2)cc1Cl | 13.5 | – | > 100 | 10.1 | 4.04 | 4.71 | – | > 100 | 23.9 | 3.8 | – | 5.31 | – | 2940 | 2640 | 8.57 | 2.06 | 2.09 | 2970 | 51.6 |
| Clc1ccccc1C1N2CCCCC2[C@@H]2c3[nH]c4ccccc4c3CCN12 (stereo not given in full) | 42.2 | 52.9 | 82.6 | 35.6 | 32.6 | 52.7 | – | – | – | – | – | – | – | – | – | – | – | – | – | – |
| Cc1ccc(Nc2[nH]c(C(=O)c3ccc(Cl)cc3)c(N)c2C(=S)Nc2ccccc2)nc1 | > 100 | > 100 | > 100 | > 100 | 74 | > 100 | 53.1 | – | > 100 | 35.7 | 38100 | 31.2 | 23000 | 23900 | 15900 | 87.7 | 29.4 | 33.1 | 56300 | – |
| COc1ccc(C(=O)Nc2ccc(S(=O)(=O)NCC(=O)O)cc2)cc1 | > 100 | > 100 | > 100 | > 100 | > 100 | > 100 | > 100 | – | – | – | – | – | – | – | – | – | – | – | – | – |
| CCOC(=O)C12CCSC1C1(C#N)C(C#N)=CC2(N=P(c2ccccc2)(c2ccccc2)c2ccccc2)n2c(=O)n(-c3ccccc3)c(=O)n21 (stereo not given) | > 100 | > 100 | 88.1 | > 100 | 89.8 | > 100 | > 100 | – | – | – | – | – | – | – | – | – | – | – | – | – |
| CCCCCCCCCCCCC/C=C1\C[C@H](O)COC1=O | 29.5 | 36.6 | – | 33.4 | 31.7 | 33.5 | – | 51.2 | – | – | – | – | – | – | – | – | – | – | – | – |
